Test results reported in patent US20120045459A1, “Methods for Treating Autophagy-Related Disorders” (Van Andel Research Institute, priority 2009, published 2012).

Tests used:
U2OS cells [1] = experiment: LC3B immunofluorescence of autophagic vesicles; assay type: cell-based, human; settings: full growth medium, 25 uM chloroquine, 1 hr
Method: Immunofluorescence and western blot analyses. U2OS cells were seeded at a density of 35,000 cells per well in McCoy's 5A medium supplemented with 10% FBS on number 1.5 coverglass in 24-well tissue culture plates (for immunofluorescence) or 150,000 cells per well on 6-well dishes (for western blot). After 24 h, siRNAs were transfected at a final concentration of 25 nM using 2 μl HiPerfect transfection reagents (Qiagen) per ml medium. Control siRNA was All-star negative control (Qiagen) and PTPRS siRNAs were two unique sequences (SI02759288, SI03056284, Qiagen). […] For western blots, cells were lysed (in 10 mM KPO4, 1 mM EDTA, 10 mM MgCl2, 5 mM EGTA, 50 mM bisglycerophosphate, 0.5% NP40, 0.1% Brij35, 0.1% sodium deoxycholate, 1 mM NaVO4, 5 mM NaF, 2 mM DTT, AEBSF, aprotinin, bestatin hydrochloride, E64, leupeptin, and pepstatin A and 20 μg of total protein was resolved by SDS-PAGE. Membranes were probed with primary antibodies (LC3B, Cell Signaling Technologies; α-tubulin, Sigma) for 16 h at 4° C. followed by secondary antibodies (HRP-linked anti-rabbit or anti-mouse IgG) for 1 h at room temperature. Proteins were detected by enhanced chemiluminescence. For immunofluorescence, cells were fixed with 3.7% formaldehyde, permeabilized with 0.2% Triton-X 100, and blocked with 3% bovine serum albumin (BSA) in PBS. […]

U2OS cells [2] = experiment: Transmission electron microscopy of autophagic vesicles; assay type: cell-based, human; settings: compared with control cells in full nutrients
Method: Transmission electron microscopy (TEM). U2OS cells in 10-cm dishes were transfected with control or PTPRS siRNAs for 48 h. Cells were briefly trypsinized, pelleted, rinsed, and resuspended in 2% glutaraldehyde fixative. Cell pellets were embedded in 2% agarose, postfixed in osmium tetroxide, and dehydrated with an acetone series. […] Ultrathin sections (70 nm) were generated with a Power Tome XL (Boeckeler Instruments) and placed on copper grids. Cells were examined using a JEOL 100CX Transmission Electron Microscope at 100 kV. Autophagic structures were quantified from images encompassing approximately 8.5 μm2 of cell area each.

SMILES: CCN(CC)CCCC(C)Nc1ccnc2cc(Cl)ccc12 (centres unmarked) [chloroquine]
- LC3-positive aggregates (AVs) (U2OS cells [1]): LC3-positive aggregates accumulate
- autophagic vesicles (AVs) by TEM (U2OS cells [2]): evident
